Key:
[1] = biological target: T1, LTA4-h (Homo sapiens, UniProt P09960); assay: human whole blood ex vivo assay: A23187-stimulated LTB4 production measured by ELISA; assay type: cell-based; conditions: IC50 in human whole blood
T1 construct: in human whole blood has been determined using an ex vivo assay; from tissue; host or cells: human whole blood (male and female donors)
T1 sequence (P09960 1-611): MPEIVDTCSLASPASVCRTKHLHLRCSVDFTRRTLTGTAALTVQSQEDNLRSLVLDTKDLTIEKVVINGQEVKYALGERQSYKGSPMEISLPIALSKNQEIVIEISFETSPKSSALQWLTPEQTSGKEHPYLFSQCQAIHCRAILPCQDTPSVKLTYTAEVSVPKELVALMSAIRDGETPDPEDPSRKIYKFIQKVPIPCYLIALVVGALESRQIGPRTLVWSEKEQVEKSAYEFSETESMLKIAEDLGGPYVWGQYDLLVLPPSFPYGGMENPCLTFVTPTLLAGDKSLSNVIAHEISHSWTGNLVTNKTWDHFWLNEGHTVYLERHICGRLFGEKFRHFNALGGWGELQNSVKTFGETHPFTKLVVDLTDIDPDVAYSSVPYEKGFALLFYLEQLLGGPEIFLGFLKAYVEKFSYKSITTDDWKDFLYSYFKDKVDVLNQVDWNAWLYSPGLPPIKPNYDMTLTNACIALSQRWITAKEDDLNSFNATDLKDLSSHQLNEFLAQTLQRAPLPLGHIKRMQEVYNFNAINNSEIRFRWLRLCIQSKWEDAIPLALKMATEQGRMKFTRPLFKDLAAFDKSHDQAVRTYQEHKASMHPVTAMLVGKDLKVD
Text: The IC50 of 4-{[(1S,4S)-5-({4-[4-oxazol-2-yl-phenoxy]phenyl}methyl)-2,5-diazabicyclo[2.2.1]heptan-2-yl]methyl}benzoic acid in human whole blood has been determined using an ex vivo assay. The human whole blood assay has been described in Penning et al (2000), Structure and Activity Relationship Studies on 1-[2-(4-Phenylphenoxy)ethyl]pyrrolidone (SC-22716), a Potent Inhibitor of Leukotriene A4 (LTA4) hydrolase, J. Med. Chem. 43: 721-735, the contents of which are expressly incorporated by reference herein. In this assay, LTB4 production is stimulated by addition of calcium ionophone (A23187) in the absence or presence of varied concentrations of 4-{[(1S,4S)-5-({4-[4-oxazol-2-yl-phenoxy]phenyl}methyl)-2,5-diazabicyclo[2.2.1]heptan-2-yl]methyl}benzoic acid. The ability of 4-{[(1S,4S)-5-({4-[4-oxazol-2-yl-phenoxy]phenyl}methyl)-2,5-diazabicyclo[2.2.1]heptan-2-yl]methyl}benzoic acid to reduce is LTB4 production is determined by ELISA. This ELISA assay was performed using the Leukotriene B4 EIA Kit available from Cayman Chemical (Item No. 520111) and the assay was performed according to the manufacturer's instructions.
(§1) Thus, oral human doses as low as 10 mg can provide therapeutic benefit in the current formulation and, with improved formulation, doses as low as 5 mg can achieve therapeutic levels of the compound in blood.

[2] = human pharmacokinetics: plasma concentration over time after oral dose; assay type: in vivo
Protocol: The two sets of dashed, horizontal lines indicate the plasma concentration that is three-times (3×) the IC50 and the plasma concentration that is one-time (1×) the IC50 of 4-{[(1S,4S)-5-({4-[4-oxazol-2-yl-phenoxy]phenyl}methyl)-2,5-diazabicyclo[2.2.1]heptan-2-yl]methyl}benzoic acid in human blood.
as §1

IC50 ([1]; female blood): 0.068 µM
IC50 ([1]; human whole blood, LTB4 production stimulated by calcium ionophore A23187): ~0.0623 µM
IC50 ([1]; male blood): 0.06 µM
peak plasma concentration relative to the IC50 ([2]; 5 mg oral dose): nearly achieves the IC50
time for which the blood plasma level exceeds the IC50 ([2]; 15 mg oral dose): over 12 hours
time for which the blood plasma level exceeds 3-times the IC50 ([2]; 50 mg oral dose): over 24 hours
Compound: O=C(O)c1ccc(CN2C[C@@H]3C[C@H]2CN3Cc2ccc(Oc3ccc(-c4ncco4)cc3)cc2)cc1 [4-{[(1S,4S)-5-({4-[4-oxazol-2-yl-phenoxy]phenyl}methyl)-2,5-diazabicyclo[2.2.1]heptan-2-yl]methyl}benzoic acid]
